The values that follow come from ChEMBL document CHEMBL5550132, “Structure-activity relationship in NOD2 agonistic muramyl dipeptides” (Eur J Med Chem, 2024).

In general, EC50 refers to the concentration giving half of the maximal effect.

Assay [1] concerns the target T1, Nuclear factor NF-kappa-B complex (Homo sapiens) (UniProt Q00653+P19838+Q04206). Nature of the assay: Activation of NF-KappaB (unknown origin) expressed in HEK293T cells assessed as fold change at 1000 ng incubated for 12 hrs by Renilla luciferase assay. As to conditions: filed as activator. Format: cell-based.
For assay [2], the target named is T1, Nuclear factor NF-kappa-B complex (Homo sapiens). Nature of the assay: Activation of NF-KappaB (unknown origin) expressed in HEK293T cells assessed as fold change at 100 ng incubated for 12 hrs by Renilla luciferase assay. The format is cell-based. As to conditions: filed as activator.
The target is the same in assay [3]. In words: Activation of NF-KappaB (unknown origin) expressed in HEK293T cells assessed as fold change at 10 ng incubated for 12 hrs by Renilla luciferase assay. Format: cell-based. As to conditions: filed as activator.
The target is the same in assay [4]. Nature of the assay: Activation of NF-KappaB in HEK293T cells assessed as fold change. The format is cell-based. As to conditions: filed as activator.
Assay [5] shares this target. Nature of the assay: Activation of NF-kappaB in HEK-Blue hNOD2 cells assessed as fold change at 100 nM incubated for 48 hrs by SEAP reporter assay. Format: cell-based. As to conditions: filed as activator. A general note: In a reporter assay the amount or activity of a reporter protein is the signal.
Assay [6] shares this target. Nature of the assay: Activation of NF-kappaB in HEK-Blue hNOD2 cells assessed as fold change at 1000 nM incubated for 48 hrs by SEAP reporter assay. The format is cell-based. As to conditions: filed as activator.
Assay [7] has the same target. Nature of the assay: Activation of NF-kappaB in HEK-Blue hNOD2 cells assessed as fold change at 10 nM incubated for 48 hrs by SEAP reporter assay. Format: cell-based. As to conditions: filed as activator.
The species entered for assay [8] is Cavia porcellus. In words: Induction of delayed type hypersensitivity in ABA-BSA immunized Hartley Guinea pigs assessed as reduction in skin lesions at 100 ug measured for 48 hrs. Format: functional. As to conditions: dose 100 µg.
For assay [9], the target named is Nucleotide-binding oligomerization domain-containing protein 2 (Homo sapiens, UniProt Q9HC29). In words: Agonist activity at NOD2 (unknown origin).
The species named for assay [10] is Cavia porcellus. In words: Induction of delayed type hypersensitivity in ABA-BSA immunized Hartley Guinea pigs assessed as reduction in skin lesions at 100 ug measured for 24 hrs. As to conditions: dose 100 µg. The format is functional.

T1 sequence (P19838 whole entry, looked up): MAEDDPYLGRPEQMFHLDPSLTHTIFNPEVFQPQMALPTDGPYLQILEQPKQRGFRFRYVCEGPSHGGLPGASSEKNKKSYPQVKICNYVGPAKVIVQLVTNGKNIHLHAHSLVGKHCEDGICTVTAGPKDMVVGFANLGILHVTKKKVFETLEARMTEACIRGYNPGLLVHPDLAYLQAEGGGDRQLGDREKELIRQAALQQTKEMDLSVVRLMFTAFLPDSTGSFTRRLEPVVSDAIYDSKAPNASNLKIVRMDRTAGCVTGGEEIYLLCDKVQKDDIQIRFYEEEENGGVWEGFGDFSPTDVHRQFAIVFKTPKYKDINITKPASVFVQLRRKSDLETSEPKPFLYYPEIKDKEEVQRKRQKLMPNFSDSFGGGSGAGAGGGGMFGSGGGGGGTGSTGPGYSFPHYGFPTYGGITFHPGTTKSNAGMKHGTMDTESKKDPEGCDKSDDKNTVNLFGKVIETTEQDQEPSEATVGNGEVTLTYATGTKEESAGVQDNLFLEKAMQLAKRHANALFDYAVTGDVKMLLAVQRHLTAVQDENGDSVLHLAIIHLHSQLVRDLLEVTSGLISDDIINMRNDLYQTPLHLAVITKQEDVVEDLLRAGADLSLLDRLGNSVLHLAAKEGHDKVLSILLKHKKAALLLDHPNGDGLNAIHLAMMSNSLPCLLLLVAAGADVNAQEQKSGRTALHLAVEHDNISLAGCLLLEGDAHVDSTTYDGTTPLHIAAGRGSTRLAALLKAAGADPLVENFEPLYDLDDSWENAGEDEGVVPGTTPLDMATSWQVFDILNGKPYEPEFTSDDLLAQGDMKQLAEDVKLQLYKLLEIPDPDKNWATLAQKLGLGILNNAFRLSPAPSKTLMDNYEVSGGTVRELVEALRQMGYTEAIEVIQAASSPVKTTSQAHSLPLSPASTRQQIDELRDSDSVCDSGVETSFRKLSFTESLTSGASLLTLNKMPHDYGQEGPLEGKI
T1 sequence (Q00653 whole entry, looked up): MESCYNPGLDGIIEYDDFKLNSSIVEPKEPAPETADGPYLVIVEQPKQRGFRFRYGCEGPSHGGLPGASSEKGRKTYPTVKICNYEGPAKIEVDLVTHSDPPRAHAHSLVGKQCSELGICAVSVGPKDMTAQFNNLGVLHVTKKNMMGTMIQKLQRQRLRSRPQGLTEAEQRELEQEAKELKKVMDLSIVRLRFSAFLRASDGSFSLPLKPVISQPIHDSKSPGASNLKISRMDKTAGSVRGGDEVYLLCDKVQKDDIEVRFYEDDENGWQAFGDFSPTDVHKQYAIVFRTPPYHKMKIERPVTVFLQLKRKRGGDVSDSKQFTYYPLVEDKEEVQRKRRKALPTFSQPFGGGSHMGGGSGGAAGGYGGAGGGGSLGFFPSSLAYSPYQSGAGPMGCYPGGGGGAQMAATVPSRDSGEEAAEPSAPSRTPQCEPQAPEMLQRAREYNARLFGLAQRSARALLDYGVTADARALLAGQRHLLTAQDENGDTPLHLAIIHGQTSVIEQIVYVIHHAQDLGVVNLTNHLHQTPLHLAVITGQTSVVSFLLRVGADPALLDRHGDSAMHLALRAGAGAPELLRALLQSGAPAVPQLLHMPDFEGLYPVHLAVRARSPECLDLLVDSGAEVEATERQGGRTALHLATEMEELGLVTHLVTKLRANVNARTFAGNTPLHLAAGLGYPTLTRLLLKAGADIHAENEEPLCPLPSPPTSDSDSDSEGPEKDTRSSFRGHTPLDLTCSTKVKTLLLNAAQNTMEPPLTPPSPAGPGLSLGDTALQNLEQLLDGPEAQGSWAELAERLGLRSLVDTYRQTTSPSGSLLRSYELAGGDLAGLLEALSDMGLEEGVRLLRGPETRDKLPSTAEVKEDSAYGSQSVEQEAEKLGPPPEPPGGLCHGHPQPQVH
T1 sequence (Q04206 whole entry, looked up): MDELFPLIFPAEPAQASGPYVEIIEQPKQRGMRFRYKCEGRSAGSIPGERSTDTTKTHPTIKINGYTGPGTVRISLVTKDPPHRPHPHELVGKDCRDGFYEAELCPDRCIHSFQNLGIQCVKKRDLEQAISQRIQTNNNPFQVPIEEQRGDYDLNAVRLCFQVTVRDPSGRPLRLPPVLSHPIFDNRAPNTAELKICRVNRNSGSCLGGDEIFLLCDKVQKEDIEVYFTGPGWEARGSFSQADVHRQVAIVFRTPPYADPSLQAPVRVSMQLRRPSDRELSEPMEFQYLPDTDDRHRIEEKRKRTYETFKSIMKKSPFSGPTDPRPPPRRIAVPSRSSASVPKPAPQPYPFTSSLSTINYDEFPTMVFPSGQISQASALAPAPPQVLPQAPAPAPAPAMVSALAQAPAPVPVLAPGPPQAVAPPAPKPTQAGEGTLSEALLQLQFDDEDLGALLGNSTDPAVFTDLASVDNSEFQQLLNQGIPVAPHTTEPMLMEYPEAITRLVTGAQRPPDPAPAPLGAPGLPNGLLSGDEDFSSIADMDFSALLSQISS
Nucleotide-binding oligomerization domain-containing protein 2, sequence (Q9HC29 whole entry, the tested form may be a part): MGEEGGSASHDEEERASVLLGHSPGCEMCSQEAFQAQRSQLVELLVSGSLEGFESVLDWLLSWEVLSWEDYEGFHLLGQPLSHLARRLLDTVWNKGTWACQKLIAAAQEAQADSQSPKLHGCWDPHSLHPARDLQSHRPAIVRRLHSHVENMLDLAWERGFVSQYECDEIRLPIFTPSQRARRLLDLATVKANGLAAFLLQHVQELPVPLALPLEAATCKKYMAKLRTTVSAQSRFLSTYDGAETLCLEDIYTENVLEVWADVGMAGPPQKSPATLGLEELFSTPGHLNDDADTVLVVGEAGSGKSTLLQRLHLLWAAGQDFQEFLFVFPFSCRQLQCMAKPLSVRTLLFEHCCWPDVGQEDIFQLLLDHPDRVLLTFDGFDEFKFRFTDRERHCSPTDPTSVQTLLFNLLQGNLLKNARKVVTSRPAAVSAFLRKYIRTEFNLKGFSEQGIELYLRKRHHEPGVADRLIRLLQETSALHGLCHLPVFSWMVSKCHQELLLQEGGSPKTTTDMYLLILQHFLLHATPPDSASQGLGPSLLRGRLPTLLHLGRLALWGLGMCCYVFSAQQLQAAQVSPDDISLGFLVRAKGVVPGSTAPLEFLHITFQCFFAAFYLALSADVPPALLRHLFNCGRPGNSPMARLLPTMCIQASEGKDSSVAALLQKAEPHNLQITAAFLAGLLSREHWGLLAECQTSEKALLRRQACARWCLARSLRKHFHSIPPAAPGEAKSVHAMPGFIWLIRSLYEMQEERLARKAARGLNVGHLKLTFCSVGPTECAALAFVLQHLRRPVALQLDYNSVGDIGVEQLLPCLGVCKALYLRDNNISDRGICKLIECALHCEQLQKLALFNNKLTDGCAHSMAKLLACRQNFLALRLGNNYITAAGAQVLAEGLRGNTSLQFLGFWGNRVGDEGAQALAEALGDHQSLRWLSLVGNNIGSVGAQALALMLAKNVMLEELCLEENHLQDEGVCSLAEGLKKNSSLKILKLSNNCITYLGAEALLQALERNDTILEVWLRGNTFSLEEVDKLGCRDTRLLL

On to `CC(=O)N[C@@H]1[C@@H](O[C@H](C)C(=O)N2CCC[C@H]2C(=O)N[C@H](CCC(=O)O)C(N)=O)[C@H](O)[C@@H](CO)O[C@H]1O`, for which the fold change (FC) was determined as 1.5 in assay [1], 1.3 in assay [2] and 1.4 in [3].

For `CC(=O)N[C@@H]1[C@@H](O[C@H](C)C(=O)N[C@H](C(=O)N[C@H](CCC(=O)O)C(N)=O)[C@@H](C)O)[C@H](O)[C@@H](CO)O[C@H]1O`, the figures for the fold change (FC) in [1], in assay [2] and in assay [3] were 5, 1.15 and 1.8, respectively.

In the case of `CC(=O)N[C@@H]1[C@@H](O[C@H](C)C(=O)N[C@H](C)C(=O)N[C@H](CCC(=O)O)C(N)=O)[C@H](O)[C@@H](CO)O[C@H]1O`, the fold change (FC) came out at 1.6 in assay [1], 1 in [2] and 1.3 in assay [3].

For `CC(=O)N[C@@H]1[C@@H](O[C@H](C)C(=O)N[C@@H](C)C(=O)N[C@@H](CCC(=O)O)C(N)=O)[C@H](O)[C@@H](CNC(=O)CCSSCCNC(=O)CCCC[C@@H]2SC[C@@H]3NC(=O)N[C@@H]32)O[C@H]1O`, the fold change (FC) in assay [4] stood at 0.9.

With `COc1cccc(-c2cn([C@H]3[C@H](O[C@H](C)C(=O)N[C@@H](C)C(=O)N[C@H](CCC(=O)O)C(N)=O)[C@@H](NC(C)=O)[C@H](O)O[C@@H]3CO)nn2)c1`, the fold change (FC) in [5] stood at 1.05; in assay [6], 1; in assay [7], 1.1.

On to `COc1ccc(CC(=O)NCc2cn([C@H]3[C@H](O[C@H](C)C(=O)N[C@@H](C)C(=O)N[C@H](CCC(=O)O)C(N)=O)[C@@H](NC(C)=O)[C@H](O)O[C@@H]3CO)nn2)cc1`, for which the fold change (FC) is 1.15 in assay [5], 1.55 in [6] and 1.1 in assay [7].

Regarding `CC(=O)N[C@@H]1[C@@H](O[C@H](C)C(=O)NCC(=O)N[C@H](CCC(=O)O)C(N)=O)[C@H](O)[C@@H](CO)O[C@H]1O`, the fold change (FC) worked out at 9.8 in assay [1], 2.8 in [2] and 1.3 in [3].

With `COc1ccc(CC(=O)NCc2cn([C@H]3[C@H](O[C@H](C)C(=O)N[C@@H](C)C(=O)N[C@H](CCC(=O)O)C(N)=O)[C@@H](NC(C)=O)[C@H](OCc4ccccc4)O[C@@H]3CO)nn2)cc1`, the fold change (FC) in assay [5] is 1.05; in assay [6], 1.2; in [7] it was 1.1.

In the case of `CC(=O)N[C@H]1C(O)O[C@H](CO)[C@@H](O)[C@@H]1O[C@H](C)C(=O)N[C@@H](C)C(=O)N[C@H](CCC(=O)O)C(N)=O` (stereo partly specified) [MURAMYL DIPEPTIDE], the fold change (FC) in assay [5] stood at 4; in [6], 6.55; in [7], 1.7. Also, the Activity in the assay filed under Cavia porcellus [8] worked out at 19 mm; in the assay filed under Cavia porcellus [10], 21 mm. Moreover, in assay [9], the EC50 amounted to 203 nM.

Turning to `CC(=O)N[C@H]1[C@H](OCc2ccccc2)O[C@H](CO)[C@@H](N)[C@@H]1O[C@H](C)C(=O)N[C@@H](C)C(=O)N[C@H](CCC(=O)O)C(N)=O`, the fold change (FC) in assay [5] is 1.2; in [6], 1.35; in [7], 1.1.

Regarding `CC(=O)N[C@@H]1[C@@H](O[C@H](C)C(=O)N[C@@H](C)C(=O)N[C@@H](CCC(=O)O)C(N)=O)[C@H](O)[C@@H](CN)O[C@H]1O`, the fold change (FC) in [4] is 1.1.

For the compound `CC(=O)N[C@@H]1[C@@H](O[C@H](C)C(=O)N(C)[C@H](C)C(=O)N[C@H](CCC(=O)O)C(N)=O)[C@H](O)[C@@H](CO)O[C@H]1O`, the fold change (FC) in [1] was 1.05; in [2], 1.3; in [3], 1.1.

`CC(=O)N[C@@H]1[C@@H](O[C@H](C)C(=O)N[C@@H](C)C(=O)N[C@H](CCC(=O)O)C(N)=O)[C@H](n2cc(CNC(=O)Cc3ccc(C(F)(F)F)cc3)nn2)[C@@H](CO)O[C@H]1O`: the fold change (FC) in assay [5] was 1.1; in assay [6], 1.35; in assay [7], 1.15.

Regarding `CC(=O)N[C@@H]1[C@@H](O[C@H](C)C(=O)N[C@@H](C)C(=O)N[C@H](CCC(=O)O)C(N)=O)[C@H](O)[C@@H](CN)O[C@H]1O`, the Activity in the assay listed under Cavia porcellus [8] was found to be 10.9 mm; in the assay listed under Cavia porcellus [10] it was 17.3 mm. Further, in [4], the fold change (FC) was 9.15.

As to `CC(=O)N[C@@H]1[C@@H](O[C@H](C)C(=O)N[C@H](CO)C(=O)N[C@H](CCC(=O)O)C(N)=O)[C@H](O)[C@@H](CO)O[C@H]1O`, the fold change (FC) in [1] worked out at 3.4; in assay [2] it was 1.05; in assay [3], 1.7.

For the compound `CC(=O)N[C@@H]1[C@@H](O[C@H](C)C(=O)N(C)[C@@H](C)C(=O)N[C@H](CCC(=O)O)C(N)=O)[C@H](O)[C@@H](CO)O[C@H]1O`, the results for the fold change (FC) in assay [1], in assay [2] and in assay [3] were 3, 1.1 and 1.5, respectively.

On to `CC(=O)N[C@@H]1[C@@H](O[C@H](C)C(=O)N[C@@H](C)C(=O)N[C@H](CCC(=O)O)C(N)=O)[C@H](O)[C@@H](CNC(=O)CCOCCOCCOCCOCCNC(=O)CCCC[C@@H]2SC[C@@H]3NC(=O)N[C@@H]32)O[C@H]1O`, for which the fold change (FC) in [4] is 9.45.

For the compound `CC(=O)N[C@@H]1[C@@H](O[C@H](C)C(=O)N[C@@H](C)C(=O)N[C@H](CCC(=O)O)C(N)=O)[C@H](O)[C@@H](CNC(=O)CCOCCOCCOCCOCCOCCOCCOCCOCCOCCOCCOCCOCCNC(=O)CCCC[C@@H]2SC[C@@H]3NC(=O)N[C@@H]32)O[C@H]1O`, in assay [4], the fold change (FC) worked out at 3.

On to `CC(=O)N[C@@H]1[C@@H](O[C@H](C)C(=O)N[C@@H](C)C(=O)N[C@@H](CCC(=O)O)C(N)=O)[C@H](O)[C@@H](CNC(=O)CCOCCOCCOCCOCCNC(=O)CCCC[C@@H]2SC[C@@H]3NC(=O)N[C@@H]32)O[C@H]1O`, for which the fold change (FC) in [4] is 1.2.

With `CC(=O)N[C@H]1[C@H](OCc2ccccc2)O[C@H](CO)[C@@H](N=[N+]=[N-])[C@@H]1O[C@H](C)C(=O)N[C@@H](C)C(=O)N[C@H](CCC(=O)O)C(N)=O`, the fold change (FC) in assay [5] turned out to be 1.65; in assay [6], 3.15; in [7], 1.3.

Consider `CC(=O)N[C@@H]1[C@@H](O[C@H](C)C(=O)N[C@@H](C)C(=O)N[C@@H](CCC(=O)O)C(N)=O)[C@H](O)[C@@H](CNC(=O)CCOCCOCCOCCOCCOCCOCCOCCOCCOCCOCCOCCOCCNC(=O)CCCC[C@@H]2SC[C@@H]3NC(=O)N[C@@H]32)O[C@H]1O`, for which, in assay [4], the fold change (FC) was determined as 1.05.

As for `CC(=O)N[C@@H]1[C@@H](O[C@H](C)C(=O)N[C@@H](C(=O)N[C@H](CCC(=O)O)C(N)=O)C(C)C)[C@H](O)[C@@H](CO)O[C@H]1O`, the fold change (FC) in assay [1] stood at 1.1; in assay [2], 1.05; in assay [3] it was 1.

For the compound `CC(=O)N[C@@H]1[C@@H](O[C@H](C)C(=O)N[C@@H](C)C(=O)N[C@H](CCC(=O)O)C(N)=O)[C@H](O)[C@@H](CNC(=O)CCSSCCNC(=O)CCCC[C@@H]2SC[C@@H]3NC(=O)N[C@@H]32)O[C@H]1O`, in [4], the fold change (FC) amounted to 7.05.

`CNCc1cn([C@H]2[C@H](O[C@H](C)C(=O)N[C@@H](C)C(=O)N[C@H](CCC(=O)O)C(N)=O)[C@@H](NC(C)=O)[C@H](O)O[C@@H]2CO)nn1`: the fold change (FC) is 1.05 in assay [5], 1 in assay [6] and 1.1 in assay [7].
